The structures appear in SMILES notation. Where two headings read alike, the source gives them in different places.

For this test, the target named is T1, FLT3 (Homo sapiens, UniProt P36888).
T1 construct: Recombinant proteins containing the FLT3 kinase domain were purchased from Carna biosciences (Japan); purchased Carna biosciences (Japan)
T1 sequence (P36888 610-943 limits assumed): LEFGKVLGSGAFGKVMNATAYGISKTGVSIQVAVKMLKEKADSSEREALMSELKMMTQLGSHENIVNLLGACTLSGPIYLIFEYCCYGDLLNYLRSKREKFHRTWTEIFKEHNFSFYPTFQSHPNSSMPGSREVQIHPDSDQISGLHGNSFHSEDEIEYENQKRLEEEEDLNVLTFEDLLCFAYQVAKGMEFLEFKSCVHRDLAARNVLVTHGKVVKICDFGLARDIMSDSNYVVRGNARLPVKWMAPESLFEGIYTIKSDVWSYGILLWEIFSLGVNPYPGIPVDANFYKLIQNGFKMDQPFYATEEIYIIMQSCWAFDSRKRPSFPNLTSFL
The experiment in a line: In vitro FLT3 kinase assay (HTRF). Type of test: biochemical. The method, then:
The inhibition of the FLT3 kinase activity was measured with homogeneous, time-resolved fluorescence (HTRF) assays. Recombinant proteins containing the FLT3 kinase domain were purchased from Carna biosciences (Japan). Optimal enzyme, ATP, and substrate concentrations were established with the HTRF KinEASE kit (Cisbio, France) according to the manufacturer’s instructions. The FLT3 enzymes were mixed with serially diluted compounds and peptide substrates in a kinase reaction buffer (50 mM HEPES (pH 7.0), 500 μM ATP, 0.1 mM sodium orthovanadate, 5 mM MgCl2, 1 mM DTT, 0.01% bovine serum albumin (BSA), and 0.02% NaN3). After the addition of the reagents for detection, the TR-FRET signal was measured with a Victor multilabel reader (Perkin Elmer, Waltham, MA, USA). […] JAK2, JAK3, cMET, and RET in vitro kinase assays were also carried out using the HTRF assay kit.
On the technique in general: TR-FRET usually uses a lanthanide donor and a delayed reading to cut background.

As for `COC(=O)c1ccc2c(c1)/C(=C1/Nc3ccccc3/C1=N\OCCN1CCNCC1)C(=O)N2.Cl.Cl` [LDD1937, methyl (2Z,3E)-2′-oxo-3-((2-(piperazin-1-yl)ethoxy)imino)-[2,3′-biindolinylidene]-5′-carboxylate dihydrochloride], the IC50 (commonly the concentration needed to halve the response being measured) reads like this: (Table 1, mean ± S.D., read-out: IC50 FLT3) 3 ± 0.525 nM; (recombinant FLT3, HTRF, read-out: IC50 FLT3 kinase activity) 3 ± 0.53 nM.
